# Measurements taken from PMC5216765, “Tumor suppressor berberine binds VASP to inhibit cell migration in basal-like breast cancer” (Oncotarget, 2016).
# Molecular target: T1, VASP (vasodilator-stimulated phosphoprotein) (Homo sapiens, UniProt P50552)
# T1 construct: recombinant VASP expressed in E. coli Rosetta (IPTG, 18 °C), as previously described
# Experiment: intrinsic tryptophan fluorescence quenching titration (excitation […] nm)
# Format: binding
# Conditions: 25 °C; 0.4 μM VASP; berberine 0 to 3.4 μM
# T1 sequence (P50552 2-380): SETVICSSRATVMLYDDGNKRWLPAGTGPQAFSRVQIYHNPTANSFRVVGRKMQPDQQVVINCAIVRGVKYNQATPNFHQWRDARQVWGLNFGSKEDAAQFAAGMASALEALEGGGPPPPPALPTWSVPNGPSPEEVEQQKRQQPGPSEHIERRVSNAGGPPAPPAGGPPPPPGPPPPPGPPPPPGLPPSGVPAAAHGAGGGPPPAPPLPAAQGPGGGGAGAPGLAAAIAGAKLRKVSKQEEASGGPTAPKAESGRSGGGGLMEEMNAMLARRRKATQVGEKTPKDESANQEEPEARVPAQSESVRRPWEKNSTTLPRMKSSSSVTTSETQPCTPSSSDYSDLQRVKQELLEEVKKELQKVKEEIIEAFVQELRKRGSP
smiles,measurement,value
COc1ccc2cc3[n+](cc2c1OC)CCc1cc2c(cc1-3)OCO2 [berberine],Kd,100 nM
